#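 The compound was tested at five concentrations on cells cultured in 96-well plates, with a 48-hour exposure period. TGI denotes the concentration required for complete inhibition of growth.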
# How the values were obtained:
# Assay in all cases: NCI tumour cell line growth inhibition, 48 h
# IGROV1 ovarian = test system: IGROV1 ovarian
# SK-MEL-5 melanoma = test system: SK-MEL-5 melanoma
# T-47D breast = test system: T-47D breast
# RXF 393 renal = test system: RXF 393 renal
# MALME-3M melanoma = test system: MALME-3M melanoma
# OVCAR-8 ovarian = test system: OVCAR-8 ovarian
# SNB-19 CNS = test system: SNB-19 CNS
# MCF7 breast = test system: MCF7 breast
# MDA-MB-231 breast = test system: MDA-MB-231 breast
# A549 NSCLC = test system: A549 NSCLC
# HCC-2998 colon = test system: HCC-2998 colon
# NCI-H23 lung = test system: NCI-H23 lung
# OVCAR-3 ovarian = test system: OVCAR-3 ovarian
# SF-268 CNS = test system: SF-268 CNS
# A498 renal = test system: A498 renal
# SN12C renal = test system: SN12C renal
# KM12 colon = test system: KM12 colon
# OVCAR-4 ovarian = test system: OVCAR-4 ovarian
# ACHN renal = test system: ACHN renal
# SK-MEL-28 melanoma = test system: SK-MEL-28 melanoma
# OVCAR-5 ovarian = test system: OVCAR-5 ovarian
# BT-549 breast = test system: BT-549 breast
# SR leukemia = test system: SR leukemia
# NCI-H522 lung = test system: NCI-H522 lung
# UO-31 renal = test system: UO-31 renal
# COLO 205 colon = test system: COLO 205 colon
# SF-295 CNS = test system: SF-295 CNS
# UACC-257 melanoma = test system: UACC-257 melanoma
# CAKI-1 renal = test system: CAKI-1 renal
# EKVX NSCLC = test system: EKVX NSCLC
# MDA-N = test system: MDA-N
# NCI/ADR-RES ovarian = test system: NCI/ADR-RES ovarian
# CCRF-CEM leukemia = test system: CCRF-CEM leukemia
# HS 578T breast = test system: HS 578T breast
# PC-3 prostate = test system: PC-3 prostate
# MDA-MB-435 = test system: MDA-MB-435
# K-562 leukemia = test system: K-562 leukemia
# SF-539 CNS = test system: SF-539 CNS
# SNB-75 CNS = test system: SNB-75 CNS
# HOP-62 NSCLC = test system: HOP-62 NSCLC
# UACC-62 melanoma = test system: UACC-62 melanoma
# DU-145 prostate = test system: DU-145 prostate
# 786-0 renal = test system: 786-0 renal
# NCI-H226 lung = test system: NCI-H226 lung
# HCT-15 colon = test system: HCT-15 colon
# SK-OV-3 ovarian = test system: SK-OV-3 ovarian
# HT29 colon = test system: HT29 colon
# HOP-92 NSCLC = test system: HOP-92 NSCLC
# SW-620 colon = test system: SW-620 colon
# MOLT-4 leukemia = test system: MOLT-4 leukemia
# U251 CNS = test system: U251 CNS
# TK-10 renal = test system: TK-10 renal
# NCI-H460 lung = test system: NCI-H460 lung
# HCT-116 colon = test system: HCT-116 colon
# RPMI-8226 leukemia = test system: RPMI-8226 leukemia
# HL-60(TB) leukemia = test system: HL-60(TB) leukemia
# LOX IMVI melanoma = test system: LOX IMVI melanoma
# M14 melanoma = test system: M14 melanoma
# SK-MEL-2 melanoma = test system: SK-MEL-2 melanoma
smiles,measurement,setting,value
O=C(CC(C(=O)c1cccs1)c1ccsc1)c1cccs1 (stereo not given),TGI,IGROV1 ovarian,> 100 µM
same,TGI,SK-MEL-5 melanoma,> 100 µM
same,TGI,T-47D breast,> 100 µM
same,TGI,RXF 393 renal,> 100 µM
same,TGI,MALME-3M melanoma,> 100 µM
same,TGI,OVCAR-8 ovarian,> 100 µM
same,TGI,SNB-19 CNS,> 100 µM
same,TGI,MCF7 breast,> 100 µM
same,TGI,MDA-MB-231 breast,> 100 µM
same,TGI,A549 NSCLC,> 100 µM
same,TGI,HCC-2998 colon,> 100 µM
same,TGI,NCI-H23 lung,> 100 µM
same,TGI,OVCAR-3 ovarian,> 100 µM
same,TGI,SF-268 CNS,> 100 µM
same,TGI,A498 renal,> 100 µM
same,TGI,SN12C renal,> 100 µM
same,TGI,KM12 colon,> 100 µM
same,TGI,OVCAR-4 ovarian,> 100 µM
same,TGI,ACHN renal,> 100 µM
same,TGI,SK-MEL-28 melanoma,> 100 µM
same,TGI,OVCAR-5 ovarian,> 100 µM
same,TGI,BT-549 breast,> 100 µM
same,TGI,SR leukemia,> 100 µM
same,TGI,NCI-H522 lung,> 100 µM
same,TGI,UO-31 renal,> 100 µM
same,TGI,COLO 205 colon,> 100 µM
same,TGI,SF-295 CNS,> 100 µM
same,TGI,UACC-257 melanoma,> 100 µM
same,TGI,CAKI-1 renal,> 100 µM
same,TGI,EKVX NSCLC,76.8 µM
same,TGI,MDA-N,80.5 µM
same,TGI,NCI/ADR-RES ovarian,> 100 µM
same,TGI,CCRF-CEM leukemia,> 100 µM
same,TGI,HS 578T breast,> 100 µM
same,TGI,PC-3 prostate,> 100 µM
same,TGI,MDA-MB-435,92.4 µM
same,TGI,K-562 leukemia,> 100 µM
same,TGI,SF-539 CNS,> 100 µM
same,TGI,SNB-75 CNS,> 100 µM
same,TGI,HOP-62 NSCLC,> 100 µM
same,TGI,UACC-62 melanoma,> 100 µM
same,TGI,DU-145 prostate,> 100 µM
same,TGI,786-0 renal,> 100 µM
same,TGI,NCI-H226 lung,> 100 µM
same,TGI,HCT-15 colon,> 100 µM
same,TGI,SK-OV-3 ovarian,> 100 µM
same,TGI,HT29 colon,> 100 µM
same,TGI,HOP-92 NSCLC,> 100 µM
same,TGI,SW-620 colon,> 100 µM
same,TGI,MOLT-4 leukemia,> 100 µM
same,TGI,U251 CNS,> 100 µM
same,TGI,TK-10 renal,> 100 µM
same,TGI,NCI-H460 lung,> 100 µM
same,TGI,HCT-116 colon,> 100 µM
CC(=O)NC(C)(C)C1CC=C(C)CC1 (stereo not given),TGI,IGROV1 ovarian,> 100 µM
same,TGI,SK-MEL-5 melanoma,> 100 µM
same,TGI,RXF 393 renal,> 100 µM
same,TGI,MALME-3M melanoma,> 100 µM
same,TGI,OVCAR-8 ovarian,> 100 µM
same,TGI,RPMI-8226 leukemia,> 100 µM
same,TGI,SNB-19 CNS,> 100 µM
same,TGI,MCF7 breast,> 100 µM
same,TGI,MDA-MB-231 breast,> 100 µM
same,TGI,A549 NSCLC,> 100 µM
same,TGI,HCC-2998 colon,> 100 µM
same,TGI,NCI-H23 lung,> 100 µM
same,TGI,OVCAR-3 ovarian,> 100 µM
same,TGI,SF-268 CNS,> 100 µM
same,TGI,A498 renal,> 100 µM
same,TGI,SN12C renal,> 100 µM
same,TGI,KM12 colon,> 100 µM
same,TGI,OVCAR-4 ovarian,> 100 µM
same,TGI,HL-60(TB) leukemia,> 100 µM
same,TGI,ACHN renal,> 100 µM
same,TGI,SK-MEL-28 melanoma,> 100 µM
same,TGI,OVCAR-5 ovarian,> 100 µM
same,TGI,BT-549 breast,> 100 µM
same,TGI,SR leukemia,> 100 µM
same,TGI,UO-31 renal,> 100 µM
same,TGI,COLO 205 colon,> 100 µM
same,TGI,SF-295 CNS,> 100 µM
same,TGI,UACC-257 melanoma,> 100 µM
same,TGI,CAKI-1 renal,> 100 µM
same,TGI,EKVX NSCLC,> 100 µM
same,TGI,MDA-N,> 100 µM
same,TGI,NCI/ADR-RES ovarian,> 100 µM
same,TGI,CCRF-CEM leukemia,> 100 µM
same,TGI,HS 578T breast,> 100 µM
same,TGI,PC-3 prostate,> 100 µM
same,TGI,MDA-MB-435,> 100 µM
same,TGI,K-562 leukemia,> 100 µM
same,TGI,SF-539 CNS,> 100 µM
same,TGI,SNB-75 CNS,> 100 µM
same,TGI,HOP-62 NSCLC,> 100 µM
same,TGI,UACC-62 melanoma,> 100 µM
same,TGI,DU-145 prostate,> 100 µM
same,TGI,786-0 renal,> 100 µM
same,TGI,LOX IMVI melanoma,> 100 µM
same,TGI,NCI-H226 lung,> 100 µM
same,TGI,HCT-15 colon,> 100 µM
same,TGI,SK-OV-3 ovarian,> 100 µM
same,TGI,HT29 colon,> 100 µM
same,TGI,SW-620 colon,> 100 µM
same,TGI,MOLT-4 leukemia,> 100 µM
same,TGI,U251 CNS,> 100 µM
same,TGI,TK-10 renal,> 100 µM
same,TGI,NCI-H460 lung,> 100 µM
same,TGI,HCT-116 colon,> 100 µM
same,TGI,M14 melanoma,> 100 µM
O=C(CSc1nc2ccccc2s1)c1sc2sc3ccccc3[n+]2c1[O-],TGI,IGROV1 ovarian,> 100 µM
same,TGI,SK-MEL-5 melanoma,> 100 µM
same,TGI,T-47D breast,> 100 µM
same,TGI,RXF 393 renal,> 100 µM
same,TGI,MALME-3M melanoma,> 100 µM
same,TGI,OVCAR-8 ovarian,> 100 µM
same,TGI,RPMI-8226 leukemia,> 100 µM
same,TGI,SNB-19 CNS,> 100 µM
same,TGI,MCF7 breast,> 100 µM
same,TGI,MDA-MB-231 breast,> 100 µM
same,TGI,A549 NSCLC,> 100 µM
same,TGI,NCI-H23 lung,> 100 µM
same,TGI,OVCAR-3 ovarian,> 100 µM
same,TGI,SF-268 CNS,> 100 µM
same,TGI,A498 renal,> 100 µM
same,TGI,SN12C renal,> 100 µM
same,TGI,KM12 colon,> 100 µM
same,TGI,OVCAR-4 ovarian,> 100 µM
same,TGI,HL-60(TB) leukemia,> 100 µM
same,TGI,ACHN renal,> 100 µM
same,TGI,SK-MEL-28 melanoma,> 100 µM
same,TGI,OVCAR-5 ovarian,> 100 µM
same,TGI,BT-549 breast,> 100 µM
same,TGI,SR leukemia,> 100 µM
same,TGI,NCI-H522 lung,> 100 µM
same,TGI,UO-31 renal,> 100 µM
same,TGI,COLO 205 colon,> 100 µM
same,TGI,SF-295 CNS,> 100 µM
same,TGI,UACC-257 melanoma,> 100 µM
same,TGI,CAKI-1 renal,> 100 µM
same,TGI,EKVX NSCLC,> 100 µM
same,TGI,MDA-N,> 100 µM
same,TGI,NCI/ADR-RES ovarian,> 100 µM
same,TGI,HS 578T breast,> 100 µM
same,TGI,PC-3 prostate,> 100 µM
same,TGI,MDA-MB-435,> 100 µM
same,TGI,K-562 leukemia,> 100 µM
same,TGI,SF-539 CNS,> 100 µM
same,TGI,HOP-62 NSCLC,> 100 µM
same,TGI,UACC-62 melanoma,> 100 µM
same,TGI,DU-145 prostate,> 100 µM
same,TGI,786-0 renal,> 100 µM
same,TGI,LOX IMVI melanoma,> 100 µM
same,TGI,NCI-H226 lung,> 100 µM
same,TGI,HCT-15 colon,> 100 µM
same,TGI,SK-OV-3 ovarian,> 100 µM
same,TGI,HT29 colon,> 100 µM
same,TGI,HOP-92 NSCLC,> 100 µM
same,TGI,SW-620 colon,> 100 µM
same,TGI,MOLT-4 leukemia,> 100 µM
same,TGI,U251 CNS,> 100 µM
same,TGI,SK-MEL-2 melanoma,> 100 µM
same,TGI,TK-10 renal,> 100 µM
same,TGI,NCI-H460 lung,> 100 µM
same,TGI,HCT-116 colon,> 100 µM
same,TGI,M14 melanoma,> 100 µM

# Reference: PubChem BioAssay (NCI)
